{
  "source": "patent US6914045B2",
  "about": "“Glycopeptide antibiotics” (Wyeth Holdings Corporation, priority 2001, dated 2005)",
  "key": {"[1]": {"test_system": "Staphylococcus aureus-SMITH (GC 4543)", "assay": "acute lethal infection in mice", "assay_type": "in vivo", "details": "acute lethal infection, female CD-1 mice, intraperitoneal challenge, intravenous 30 min. after infection, 7 day survival", "protocol": "Methods for in Vivo Antibacterial Evaluation\nThe therapeutic effects of glycopeptide antibiotics of Formula I are determined against acute lethal infections with S. aureus (strain Smith), a penicillin resistant strain of S. pneumoniae (strain GC 1894), and a vancomycin resistant strain of E. fecalis (strain GC 6189 and GC 2246). Female mice, CD-1 (Charles River Laboratories), 20+/−2 gm, are challenged by intraperitoneal injection of sufficient bacteria (suspended in /trypticase Soy Broth or hog gastric mucin) to kill non-treated controls within 24-48 hr. Antibacterial agents, contained in 0.2 mL of saline or 5% dextrose solution, are administered intravenously 30 min. after infection. Five mice are treated at each dose level. The 7 day survival ratios from 3 separate tests are pooled for calculation of median effective dose (ED50)."}, "[2]": {"test_system": "Staphylococcus sp.", "assay": "in vitro antibacterial evaluation, MIC by broth dilution", "assay_type": "cell-based", "details": "broth dilution, 18 hours at 35° C.", "outline": "(§1)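 Read-out: the lowest concentration at which the test strain fails to grow. Serial dilutions (64-0.06 μg/mL) in Muller-Hinton II […], 5×10^5 CFU/mL inoculum, NCCLS M7-A2 procedure.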"}, "[3]": {"test_system": "Escherichia coli", "assay": "in vitro antibacterial evaluation, MIC by broth dilution", "assay_type": "cell-based", "details": "18 hours at 35° C.", "outline": "as §1"}, "[4]": {"test_system": "Streptococcus sp.", "assay": "in vitro antibacterial evaluation, MIC by broth dilution", "assay_type": "cell-based", "details": "broth dilution, 18 hours at 35° C.", "outline": "as §1"}, "[5]": {"test_system": "Enterococcus sp.", "assay": "in vitro antibacterial evaluation, MIC by broth dilution", "assay_type": "cell-based", "details": "broth dilution, 18 hours at 35° C.", "outline": "as §1"}},
  "data": [
    {"smiles": "COc1cccc(C2OCC3OC(OC4C(CO)OC(Oc5ccc(CC6NC(=O)C(C(C)c7ccccc7)NC(=O)CNC(=O)C(CO)NC(=O)C(C(O)C7CNC(=N)N7C7OC(CO)C(O)C(O)C7O)NC(=O)C(C(O)C7CNC(=N)N7)NC6=O)cc5)C(O)C4O)C(O)C(O)C3O2)c1", "note": "(stereo not drawn) [Example 137, Cyclo[glycyl-β-methylphenylalanyl-O-[4-O-[4,6-O-(3-methoxybenzylidene)hexopyranosyl]-hexopyranosyl]tyrosyl-3-(2-iminoimidazolidin-4-yl)seryl-3-(3-hexopyranosyl-2-iminoimidazolidin-4-yl)serylseryl]]", "values": [
      {"measurement": "median effective dose (ED50), Staphylococcus aureus-SMITH (GC 4543)", "setting": "[1]", "value": 0.24, "unit": "mg/kg"},
      {"measurement": "MIC Staphylococcus aureus (ATCC 29213)", "setting": "[2]", "value": "1 to 2", "unit": "µg/mL"},
      {"measurement": "MIC Staphylococcus aureus (GC 1131)", "setting": "[2]", "value": 2, "unit": "µg/mL"},
      {"measurement": "MIC Staphylococcus aureus (GC 3051)", "setting": "[2]", "value": "1 to 2", "unit": "µg/mL"},
      {"measurement": "MIC Staphylococcus aureus (GC 3053)", "setting": "[2]", "value": "2 to 4", "unit": "µg/mL"},
      {"measurement": "MIC Staphylococcus aureus (GC 4541)", "setting": "[2]", "value": "1 to 2", "unit": "µg/mL"},
      {"measurement": "MIC Staphylococcus aureus (GC 4542)", "setting": "[2]", "value": "1 to 2", "unit": "µg/mL"},
      {"measurement": "MIC Staphylococcus aureus (GC 4544)", "setting": "[2]", "value": 2, "unit": "µg/mL"},
      {"measurement": "MIC Staphylococcus aureus (GC 4545)", "setting": "[2]", "value": "2 to 4", "unit": "µg/mL"},
      {"measurement": "MIC Staphylococcus aureus (GC 1131)", "setting": "[2]; inoculum 5×10^5 CFU/mL, strain GC 1131", "value": 2, "unit": "µg/mL"},
      {"measurement": "MIC Staphylococcus aureus (ATCC 29213)", "setting": "[2]; strain ATCC 29213", "value": "1 to 2", "unit": "µg/mL"},
      {"measurement": "MIC Staphylococcus aureus (GC 3051)", "setting": "[2]; strain GC 3051", "value": "1 to 2", "unit": "µg/mL"},
      {"measurement": "MIC Staphylococcus aureus (GC 3053)", "setting": "[2]; strain GC 3053", "value": "2 to 4", "unit": "µg/mL"},
      {"measurement": "MIC Staphylococcus aureus (GC 4541)", "setting": "[2]; strain GC 4541", "value": "1 to 2", "unit": "µg/mL"},
      {"measurement": "MIC Staphylococcus aureus (GC 4542)", "setting": "[2]; strain GC 4542", "value": "1 to 2", "unit": "µg/mL"},
      {"measurement": "MIC Staphylococcus aureus-SMITH (GC 4543)", "setting": "[2]; strain GC 4543", "value": "1 to 2", "unit": "µg/mL"},
      {"measurement": "MIC Staphylococcus aureus (GC 4544)", "setting": "[2]; strain GC 4544", "value": 2, "unit": "µg/mL"},
      {"measurement": "MIC Staphylococcus aureus (GC 4545)", "setting": "[2]; strain GC 4545", "value": "2 to 4", "unit": "µg/mL"},
      {"measurement": "MIC Staphylococcus haemolyticus (GC 4546)", "setting": "[2]; strain GC 4546", "value": 1, "unit": "µg/mL"},
      {"measurement": "MIC Coagulase Negative Staphylococcus (GC 4547)", "setting": "[2]; strain GC 4547", "value": "1 to 2", "unit": "µg/mL"},
      {"measurement": "MIC Coagulase Negative Staphylococcus (GC 4548)", "setting": "[2]; strain GC 4548", "value": "0.5 to 2", "unit": "µg/mL"},
      {"measurement": "MIC Coagulase Negative Staphylococcus (GC 4549)", "setting": "[2]; strain GC 4549", "value": "0.5 to 1", "unit": "µg/mL"},
      {"measurement": "MIC Coagulase Negative Staphylococcus (GC 4551)", "setting": "[2]; strain GC 4551", "value": "1 to 2", "unit": "µg/mL"},
      {"measurement": "MIC Coagulase Negative Staphylococcus (GC 6257)", "setting": "[2]; strain GC 6257", "value": 1, "unit": "µg/mL"},
      {"measurement": "MIC Staphylococcus aureus-SMITH (GC 4543)", "setting": "[2]; strain SMITH GC 4543", "value": "1 to 2", "unit": "µg/mL"},
      {"measurement": "MIC Escherichia coli (ATCC 25922)", "setting": "[3]; strain ATCC 25922", "value": 64, "unit": "µg/mL"},
      {"measurement": "MIC Escherichia coli (GC 4559)", "setting": "[3]; strain GC 4559", "value": "32 to 64", "unit": "µg/mL"},
      {"measurement": "MIC Escherichia coli (GC 4560)", "setting": "[3]; strain GC 4560", "value": 1, "unit": "µg/mL"},
      {"measurement": "MIC Streptococcus agalactiae (GC 4564)", "setting": "[4]; Streptococcus agalactiae (GC 4564)", "value": 0.5, "unit": "µg/mL"},
      {"measurement": "MIC Streptococcus pneumoniae (ATCC 6301)", "setting": "[4]; Streptococcus pneumoniae (ATCC 6301)", "value": 0.12, "unit": "µg/mL"},
      {"measurement": "MIC Streptococcus pneumoniae (GC 1894)", "setting": "[4]; Streptococcus pneumoniae (GC 1894)", "value": "<0.06", "unit": "µg/mL"},
      {"measurement": "MIC Streptococcus pneumoniae (GC 4565)", "setting": "[4]; Streptococcus pneumoniae (GC 4565)", "value": 0.25, "unit": "µg/mL"},
      {"measurement": "MIC Streptococcus pyogenes (GC 4563)", "setting": "[4]; Streptococcus pyogenes (GC 4563)", "value": 0.25, "unit": "µg/mL"},
      {"measurement": "MIC Streptococcus pneumoniae (ATCC 6301)", "setting": "[4]; strain ATCC 6301", "value": 0.12, "unit": "µg/mL"},
      {"measurement": "MIC Streptococcus pneumoniae (GC 1894)", "setting": "[4]; strain GC 1894", "value": "<0.06", "unit": "µg/mL"},
      {"measurement": "MIC Streptococcus pyogenes (GC 4563)", "setting": "[4]; strain GC 4563", "value": 0.25, "unit": "µg/mL"},
      {"measurement": "MIC Streptococcus agalactiae (GC 4564)", "setting": "[4]; strain GC 4564", "value": 0.5, "unit": "µg/mL"},
      {"measurement": "MIC Streptococcus pneumoniae (GC 4565)", "setting": "[4]; strain GC 4565", "value": 0.25, "unit": "µg/mL"},
      {"measurement": "MIC Enterococcus avium (GC 4558)", "setting": "[5]; Enterococcus avium (GC 4558)", "value": "4 to 8", "unit": "µg/mL"},
      {"measurement": "MIC Enterococcus faecalis (ATCC 29212)", "setting": "[5]; Enterococcus faecalis (ATCC 29212)", "value": "4 to 8", "unit": "µg/mL"},
      {"measurement": "MIC Enterococcus faecalis (GC 2242)", "setting": "[5]; Enterococcus faecalis (GC 2242)", "value": "4 to 8", "unit": "µg/mL"},
      {"measurement": "MIC Enterococcus faecalis (GC 2691)", "setting": "[5]; Enterococcus faecalis (GC 2691)", "value": "4 to 8", "unit": "µg/mL"},
      {"measurement": "MIC Enterococcus faecalis (GC 3059)", "setting": "[5]; Enterococcus faecalis (GC 3059)", "value": "4 to 8", "unit": "µg/mL"},
      {"measurement": "MIC Enterococcus faecalis (GC 4552)", "setting": "[5]; Enterococcus faecalis (GC 4552)", "value": "4 to 8", "unit": "µg/mL"},
      {"measurement": "MIC Enterococcus faecalis (GC 4553)", "setting": "[5]; Enterococcus faecalis (GC 4553)", "value": "4 to 8", "unit": "µg/mL"},
      {"measurement": "MIC Enterococcus faecalis (GC 4554)", "setting": "[5]; Enterococcus faecalis (GC 4554)", "value": "4 to 8", "unit": "µg/mL"},
      {"measurement": "MIC Enterococcus faecalis (GC 6189)", "setting": "[5]; Enterococcus faecalis (GC 6189)", "value": 4, "unit": "µg/mL"},
      {"measurement": "MIC Enterococcus faecium (GC 2243)", "setting": "[5]; Enterococcus faecium (GC 2243)", "value": "4 to 8", "unit": "µg/mL"},
      {"measurement": "MIC Enterococcus faecium (GC 4556)", "setting": "[5]; Enterococcus faecium (GC 4556)", "value": "4 to 8", "unit": "µg/mL"},
      {"measurement": "MIC Enterococcus faecium (GC 4557)", "setting": "[5]; Enterococcus faecium (GC 4557)", "value": "2 to 4", "unit": "µg/mL"},
      {"measurement": "MIC Enterococcus faecalis (ATCC 29212)", "setting": "[5]; strain ATCC 29212", "value": "4 to 8", "unit": "µg/mL"},
      {"measurement": "MIC Enterococcus faecalis (GC 2242)", "setting": "[5]; strain GC 2242", "value": "4 to 8", "unit": "µg/mL"},
      {"measurement": "MIC Enterococcus faecium (GC 2243)", "setting": "[5]; strain GC 2243", "value": "4 to 8", "unit": "µg/mL"},
      {"measurement": "MIC Enterococcus faecalis (GC 2691)", "setting": "[5]; strain GC 2691", "value": "4 to 8", "unit": "µg/mL"},
      {"measurement": "MIC Enterococcus faecalis (GC 3059)", "setting": "[5]; strain GC 3059", "value": "4 to 8", "unit": "µg/mL"},
      {"measurement": "MIC Enterococcus faecalis (GC 4552)", "setting": "[5]; strain GC 4552", "value": "4 to 8", "unit": "µg/mL"},
      {"measurement": "MIC Enterococcus faecalis (GC 4553)", "setting": "[5]; strain GC 4553", "value": "4 to 8", "unit": "µg/mL"},
      {"measurement": "MIC Enterococcus faecalis (GC 4554)", "setting": "[5]; strain GC 4554", "value": "4 to 8", "unit": "µg/mL"},
      {"measurement": "MIC Enterococcus faecium (GC 4556)", "setting": "[5]; strain GC 4556", "value": "4 to 8", "unit": "µg/mL"},
      {"measurement": "MIC Enterococcus faecium (GC 4557)", "setting": "[5]; strain GC 4557", "value": "2 to 4", "unit": "µg/mL"},
      {"measurement": "MIC Enterococcus avium (GC 4558)", "setting": "[5]; strain GC 4558", "value": "4 to 8", "unit": "µg/mL"},
      {"measurement": "MIC Enterococcus faecalis (GC 6189)", "setting": "[5]; strain GC 6189", "value": 4, "unit": "µg/mL"}
    ]}
  ]
}
